Laboratory results as given in ChEMBL document CHEMBL2440076, “New triarylpyrazoles as broad-spectrum anticancer agents: design, synthesis, and biological evaluation” (Eur J Med Chem, 2013).

Legend:
Assay type in all cases: functional
[1] = tested on: BT-549; assay: Growth inhibition of human BT549 cells assessed as cell growth at 5X10'-8 M after 48 hrs by sulforhodamine B assay; conditions: BT-549, 48 h, read-out: Activity
[2] = tested on: 786-0; assay: Growth inhibition of human 786-0 cells assessed as cell growth at 5X10'-9 M after 48 hrs by sulforhodamine B assay; conditions: 786-0, 48 h, read-out: Activity
[3] = tested on: OVCAR-4; assay: Growth inhibition of human OVCAR4 cells assessed as cell growth at 5X10'-7 M after 48 hrs by sulforhodamine B assay; conditions: OVCAR-4, 48 h, read-out: Activity
[4] = tested on: T47D; assay: Growth inhibition of human T47D cells assessed as cell growth at 5X10'-9 M after 48 hrs by sulforhodamine B assay; conditions: read-out: Activity
[5] = tested on: OVCAR-5; assay: Growth inhibition of human OVCAR5 cells assessed as cell growth at 5X10'-9 M after 48 hrs by sulforhodamine B assay; conditions: OVCAR-5, 48 h, read-out: Activity
[6] = tested on: HL-60(TB); assay: Growth inhibition of human HL-60(TB) cells assessed as cell growth at 5X10'-6 M after 48 hrs by sulforhodamine B assay; conditions: HL-60, 48 h, read-out: Activity
[7] = tested on: A549; assay: Growth inhibition of human A549/ATCC cells assessed as cell growth at 5X10'-8 M after 48 hrs by sulforhodamine B assay; conditions: A549, 48 h, read-out: Activity
[8] = tested on: MDA-MB-231; assay: Growth inhibition of human MDA-MB-231 cells assessed as cell growth at 5X10'-7 M after 48 hrs by sulforhodamine B assay; conditions: MDA-MB-231, 48 h, read-out: Activity
[9] = tested on: T47D; assay: Growth inhibition of human T47D cells assessed as cell growth at 5X10'-8 M after 48 hrs by sulforhodamine B assay; conditions: read-out: Activity
[10] = tested on: HCT-116; assay: Growth inhibition of human HCT116 cells assessed as cell growth at 5X10'-6 M after 48 hrs by sulforhodamine B assay; conditions: HCT-116, 48 h, read-out: Activity
[11] = tested on: LOX IMVI; assay: Growth inhibition of human LOXIMVI cells assessed as cell growth at 5X10'-5 M after 48 hrs by sulforhodamine B assay; conditions: read-out: Activity
[12] = tested on: HCT-15; assay: Growth inhibition of human HCT15 cells assessed as cell growth at 5X10'-7 M after 48 hrs by sulforhodamine B assay; conditions: HCT-15, 48 h, read-out: Activity
[13] = tested on: SW-620; assay: Growth inhibition of human SW620 cells assessed as cell growth at 5X10'-5 M after 48 hrs by sulforhodamine B assay; conditions: SW-620, 48 h, read-out: Activity
[14] = tested on: DU-145; assay: Growth inhibition of human DU145 cells assessed as cell growth at 5X10'-8 M after 48 hrs by sulforhodamine B assay; conditions: DU-145, 48 h, read-out: Activity
[15] = tested on: NCI-H322M; assay: Growth inhibition of human NCI-H322M cells assessed as cell growth at 5X10'-5 M after 48 hrs by sulforhodamine B assay; conditions: read-out: Activity
[16] = tested on: SK-OV-3; assay: Growth inhibition of human SKOV3 cells assessed as cell growth at 5X10'-7 M after 48 hrs by sulforhodamine B assay; conditions: SK-OV-3, 48 h, read-out: Activity
[17] = tested on: SK-MEL-28; assay: Growth inhibition of human SK-MEL-28 cells assessed as cell growth at 5X10'-9 M after 48 hrs by sulforhodamine B assay; conditions: SK-MEL-28, 48 h, read-out: Activity
[18] = tested on: M14; assay: Growth inhibition of human M14 cells assessed as cell growth at 5X10'-5 M after 48 hrs by sulforhodamine B assay; conditions: M14, 48 h, read-out: Activity
[19] = tested on: MDA-MB-231; assay: Growth inhibition of human MDA-MB-231 cells assessed as cell growth at 5X10'-5 M after 48 hrs by sulforhodamine B assay; conditions: MDA-MB-231, 48 h, read-out: Activity
[20] = tested on: SNB-19; assay: Growth inhibition of human SNB19 cells assessed as cell growth at 5X10'-7 M after 48 hrs by sulforhodamine B assay; conditions: SNB-19, 48 h, read-out: Activity
[21] = tested on: SN12C; assay: Growth inhibition of human SN12C cells assessed as cell growth at 5X10'-8 M after 48 hrs by sulforhodamine B assay; conditions: read-out: Activity
[22] = tested on: MDA-MB-231; assay: Growth inhibition of human MDA-MB-231 cells assessed as cell growth at 5X10'-9 M after 48 hrs by sulforhodamine B assay; conditions: MDA-MB-231, 48 h, read-out: Activity
[23] = tested on: BT-549; assay: Growth inhibition of human BT549 cells assessed as cell growth at 5X10'-9 M after 48 hrs by sulforhodamine B assay; conditions: BT-549, 48 h, read-out: Activity
[24] = tested on: OVCAR-3; assay: Growth inhibition of human OVCAR3 cells assessed as cell growth at 5X10'-7 M after 48 hrs by sulforhodamine B assay; conditions: OVCAR-3, 48 h, read-out: Activity
[25] = tested on: DU-145; assay: Growth inhibition of human DU145 cells assessed as cell growth at 5X10'-9 M after 48 hrs by sulforhodamine B assay; conditions: DU-145, 48 h, read-out: Activity
[26] = tested on: SK-OV-3; assay: Growth inhibition of human SKOV3 cells assessed as cell growth at 5X10'-8 M after 48 hrs by sulforhodamine B assay; conditions: SK-OV-3, 48 h, read-out: Activity
[27] = tested on: CAKI-1; assay: Growth inhibition of human CAKI-1 cells assessed as cell growth at 5X10'-5 M after 48 hrs by sulforhodamine B assay; conditions: CAKI-1, 48 h, read-out: Activity
[28] = tested on: SF-295; assay: Growth inhibition of human SF295 cells assessed as cell growth at 5X10'-9 M after 48 hrs by sulforhodamine B assay; conditions: SF-295, 48 h, read-out: Activity
[29] = tested on: SF-539; assay: Growth inhibition of human SF539 cells assessed as cell growth at 5X10'-9 M after 48 hrs by sulforhodamine B assay; conditions: SF-539, 48 h, read-out: Activity
[30] = tested on: OVCAR-5; assay: Growth inhibition of human OVCAR5 cells assessed as cell growth at 5X10'-7 M after 48 hrs by sulforhodamine B assay; conditions: OVCAR-5, 48 h, read-out: Activity
[31] = tested on: NCI-H226; assay: Growth inhibition of human NCI-H226 cells assessed as cell growth at 5X10'-6 M after 48 hrs by sulforhodamine B assay; conditions: NCI-H226, 48 h, read-out: Activity
[32] = tested on: SK-MEL-28; assay: Growth inhibition of human SK-MEL-28 cells assessed as cell growth at 5X10'-7 M after 48 hrs by sulforhodamine B assay; conditions: SK-MEL-28, 48 h, read-out: Activity
[33] = tested on: SF-539; assay: Growth inhibition of human SF539 cells assessed as cell growth at 5X10'-7 M after 48 hrs by sulforhodamine B assay; conditions: SF-539, 48 h, read-out: Activity
[34] = tested on: SF-268; assay: Growth inhibition of human SF268 cells assessed as cell growth at 5X10'-7 M after 48 hrs by sulforhodamine B assay; conditions: SF-268, 48 h, read-out: Activity
[35] = tested on: SK-MEL-2; assay: Growth inhibition of human SK-MEL-2 cells assessed as cell growth at 5X10'-7 M after 48 hrs by sulforhodamine B assay; conditions: SK-MEL-2, 48 h, read-out: Activity
[36] = tested on: SK-MEL-2; assay: Growth inhibition of human SK-MEL-2 cells assessed as cell growth at 5X10'-8 M after 48 hrs by sulforhodamine B assay; conditions: SK-MEL-2, 48 h, read-out: Activity
[37] = tested on: MDA-MB-435; assay: Growth inhibition of human MDA-MB-435 cells assessed as cell growth at 5X10'-5 M after 48 hrs by sulforhodamine B assay; conditions: MDA-MB-435, 48 h, read-out: Activity

Compound `O=C(Nc1cccc(-n2cc(-c3ccncc3)c(-c3ccc(Cl)c(O)c3)n2)c1)Nc1cc(C(F)(F)F)cc(C(F)(F)F)c1` has a growth at 0.05 µM [1] of 111%, a growth at 0.005 µM [2] of 100% and a growth at 0.5 µM [3] of 65%. For the same compound, the growth at 0.005 µM [4] was 97%, the growth at 0.005 µM [5] was 96% and the growth at 5 µM [6] was 3%. For the same compound, the growth at 0.05 µM [7] was 94%, the growth at 0.5 µM [8] was 74% and the growth at 0.05 µM [9] was 98%. For the same compound, the growth at 5 µM [10] was -87%, the growth at 50 µM [11] was -95% and the growth at 0.5 µM [12] was 49%. The growth at 50 µM [13] was -75%, the growth at 0.05 µM [14] was 109% and the growth at 50 µM [15] was -75%. For the same compound, the growth at 0.5 µM [16] was 98%, the growth at 0.005 µM [17] was 101% and the growth at 50 µM [18] was -86%. It also gave a growth at 50 µM [19] of -72%, a growth at 0.5 µM [20] of 64% and a growth at 0.05 µM [21] of 96%. The growth at 0.005 µM [22] was 94%, the growth at 0.005 µM [23] was 99% and the growth at 0.5 µM [24] was 43%. For the same compound, the growth at 0.005 µM [25] was 106%, the growth at 0.05 µM [26] was 102% and the growth at 50 µM [27] was -67%. It also gave a growth at 0.005 µM [28] of 92%, a growth at 0.005 µM [29] of 98% and a growth at 0.5 µM [30] of 83%. It also gave a growth at 5 µM [31] of 6%, a growth at 0.5 µM [32] of 84% and a growth at 0.5 µM [33] of 82%. For the same compound, the growth at 0.5 µM [34] was 73%, the growth at 0.5 µM [35] was 101% and the growth at 0.05 µM [36] was 113%. The growth at 50 µM [37] was -69%.
